Patent US20060122153A1, “Antineoplastic ether lipid compounds with modifications at the sn-2 carbon” (priority 2003, published 2006)
Where “and” joins values, the source holds several entries; their conditions need not be identical. Identical values can stand only once.

How the values were obtained:
B16/F10 melanoma = test: B16/F10 murine melanoma (iv./iv.) therapeutic model; format: in vivo, mice; settings: iv. treatment, lung tumor nodules
Procedure: Female C57/BL6 mice (5/group) were inoculated iv. with 5×10^4 cells in 0.2 mL PBS (day 0). On days 10, 12, 14, 16, & 18 post-tumor inoculation, mice were treated iv. with the ether lipid to be tested, along with ELL-12 (L), D-EL, L-EL or Control (0.9% NaCl). Mice were sacrificed by carbon dioxide inhalation on day 22, lungs were excised, inflated and fixed with 10% Formalin. Lungs were counted “blind” for tumor nodules using a magnifier. The mean number of nodules per treatment group was determined.

TK-10 = test: NCI growth inhibition screen, renal panel; format: cell-based, human; design: key: = means equivalent activity; + means that it appears to be significantly better (i.e., by ˜2x); < means it appears to be less active than ET18OCH3 (˜2x); a combination like =/+ or </+ means that activity is dependent upon the isomer; a combination like =/+ or </+ means that activity is dependent upon the isomer; settings: TK-10, Renal; from GI50s
Procedure: (§1) Candidates deemed suitable for in vivo testing were then synthesized in large scale quantities and some of this material was sent to the NCI's Developmental Therapeutics Program for a battery of growth inhibitory studies against various human tumor cell lines (60 cell lines, 9 different panels). The remainder of the material was used to assess in vivo efficacy using murine tumor models. Additionally, studies were conducted on the lead candidates to discern mechanism of action with particular emphasis on these agents apoptotic ability as measured by caspase 3 activity. The details (materials and methods) for these various assays are described further in the following discussion.
(§2) Ten compounds were also sent to NCI's Drug Discovery Program for screening against numerous human tumor cell lines (9 panels total: renal ovarian, colon, CNS, non-small cell lung, leukemia, breast, melanoma, and prostate). The data are shown in FIGS. 2a-i which also include data regarding D- and L-ET-18-OCH3 (listed as L-EL and D-EL in the figures). Upon examining the data, one is struck by how 1R and 1a′S standout in comparison to the other compounds, especially for the renal, ovarian, colon, and CNS panels.

CAK-1 = test: NCI growth inhibition screen, renal panel; format: cell-based, human; design: key: = means equivalent activity; + means that it appears to be significantly better (i.e., by ˜2x); < means it appears to be less active than ET18OCH3 (˜2x); a combination like =/+ or </+ means that activity is dependent upon the isomer; a combination like =/+ or </+ means that activity is dependent upon the isomer; settings: CAK-1, Renal; from GI50s
Procedure: as §1, §2

SN12C = test: NCI growth inhibition screen, renal panel; format: cell-based, human; design: key: = means equivalent activity; + means that it appears to be significantly better (i.e., by ˜2x); < means it appears to be less active than ET18OCH3 (˜2x); a combination like =/+ or </+ means that activity is dependent upon the isomer; a combination like =/+ or </+ means that activity is dependent upon the isomer; settings: from GI50s
Procedure: as §1, §2

NIH-3T3 = test: In vitro growth inhibition (GI50), SRB assay, normal fibroblast; format: cell-based, mouse; settings: NIH-3T3 normal murine fibroblast cell line, 3 days
Description: The following cell lines were selected from the cell bank for screening and GI50 studies: MCF-7: human breast tumor, MCF-7/ADR: MCF-7 adriamycin resistant subline, HT-29: human colon carcinoma, A-549: human non-small cell lung cancer, NIH-3T3: mouse Swiss embryo fibroblast and WI-38: human lung fibroblast, SKMEL-28: human melanoma, Lewis Lung: mouse lung carcinoma, DU-145: prostate carcinoma, B16F10: mouse melanoma, L1210: murine lymphocytic leukemia, P-388: murine leukemia, U-937: human histolytic lymphoma. Except HT-29, WI-38, NIH-3T3 and Lewis Lung which were obtained from the American Type Culture Collection (Rockville, Md.) all the other cell lines were obtained from National Cancer Institute—Frederick Research Facility (Frederick, Md.). All the cell lines were grown in RPMI-1640 medium containing 10% fetal bovine serum (FBS) except WI-38 and DU-145 which were grown in EMEM+10% FBS at 37° C., 5% CO2 and 100% humidity and NIH-3T3, Lewis Lung, B16F10 and L1210 which were grown in DMEM containing 10% FBS (10% HS for L1210). […]
The test compounds were made in-house and the compounds were dissolved PBS or saline at a stock concentration of approximately 20 mM, which is 400 times the desired final maximum test concentration. […] After 3 days of incubation, cell growth was determined.
The SRB assay was performed as described by Monks, A., Scudiero, D., Skehan, P., Shoemaker, R., Paull, K., Vistica, D., Hose, C., Langley, J., Cronise, P., and Vaigro-Wolff, A. Feasibility of a high-flux anticancer drug screen using a diverse panel of cultured human tumo-r cell lines. […] Bound SRB was solubilized with Tris buffer (10 mM), and the ODs were read using an automated plate reader (Bio-Rad, Model 3550-UV) at 490 nm. Background values were subtracted from the test data, and the data was calculated as a % of control. […] Percentage growth was calculated as described by, Peters, A. C., Ahmad, I., Janoff, A. S., Pushkareva, M. Y., and Mayhew, E. Growth Inhibitory effects of liposome-associated 1-o-octadecyl-2-o-methyl-sn-glycero-3-phosphocholine. […]

Row | Compound | activity against B16/F10 in mice (in words) (B16/F10 melanoma) | Performance as compared to ET-18-O—CH3 (TK-10) | Performance as compared to ET-18-O—CH3 (CAK-1) | Performance as compared to ET-18-O—CH3 (SN12C) | GI50 (NIH-3T3)
1 | CCCCCCCCCCCCCCCCCCOC[C@@H](COP(=O)([O-])OCC[N+](C)(C)C)OS(C)(=O)=O [1a′S] | exhibited activity | 0 | 0 | 0 | 30.3 µM and 35.2 µM
2 | CCCCCCCCCCCCCCCCCCOCC(COP(=O)([O-])OCC[N+](C)(C)C)OS(C)(=O)=O (stereo not shown) [Compound 1aR] | no activity | = | = | = | –
3 | CCCCCCCCCCCCCCCCCCOCC(COP(=O)([O-])OCC[N+](C)(C)C)OC [D-ET18OCH3, 1-O-octadecyl-2-O-methyl-glycerophosphocholine, reference compound] | – | – | – | – | 41.4 µM
